Data taken from patent publication US20070254863A1 (priority 2006, published 2007).
Like-named read-outs stand apart in the source and are kept apart here.

Key:
[1] = molecular target: human cannabinoid CB2 receptor (Homo sapiens, UniProt P34972); assay: biochemical; assay type: binding
Description: 3. In Vitro Binding Affinity of the Test Compounds to CB2 Receptors
After incubation of a freshly prepared cell membrane preparation with the [^3H]-ligand, with or without the addition of the compounds described herein, separation of bound and free ligand is performed by filtration over glass-fiber filters. Radioactivity on the filter is measured by liquid scintillation counting.

[2] = molecular target: T1, hamster SUR1 (Cricetus cricetus, UniProt Q09427); assay: In vitro binding affinity to rodent KATP channels: SUR1 ([3H]glibenclamide displacement, COS cell membranes); settings: hamster SUR1 in COS cell membranes; read-out: Affinity to SUR 1 (converted)
T1 construct: expressed in transfected cells; host or cells: COS-1 cells, transient (pcDNA vector)
Description: 1. In Vitro Binding Affinity of the Test Compounds to Rodent KATP Channels
Competitive binding experiments were performed to characterize the affinity of the test compounds for the binding sites for sulfonylureas and KATP channel openers (KCOS) on hamster SUR1. To assess the affinity for the sulfonylurea site, membranes from COS-cells transiently expressing hamster SUR1 were incubated in the presence of [^3H]glibenclamide with increasing concentrations of test compounds. […] For each test compound four displacement curves were measured (+/−MgATP from the human and hamster isoform). Per curve 9-15 distinct concentrations were tested covering the relevant range. All measurements were repeated at least 5 times in independent experiments.
(§1) [^3H]glibenclamide (specific activity 51 Ci mmol^−1) was obtained from NEN (Dreieich, Germany). Where needed, stock solutions were prepared in dimethylsulfoxide with a final solvent concentration in the media below 1%.
(§2) SUR- or Kir6.x isoforms were used either subcloned in the pcDNA (hamster SUR1, mouse Kir6.2) or pCMV vector (rat SUR2A, SUR2B).
(§3) For transfection, the cells were incubated 4 hours in a Tris-buffered salt solution containing DNA (5-10 μg/ml) plus DEAE-dextran (1 mg/ml), 2 min in HEPES-buffered salt solution plus dimethylsulfoxide (10%) and 4 hours in DMEM-HG plus chloroquine (100 μM). Cells were then returned to DMEM-HG plus 10% FCS. […] For binding experiments, resuspended membranes (final protein concentration 5-50 μg/ml) were incubated in “Tris-buffer” (50 mM, pH 7.4) containing either [^3H]glibenclamide (final concentration 0.3 nM or 3 nM and nonspecific binding defined by 100 nM or 1 μM glibenclamide for SUR1 or SUR2Y1205S-isoforms, respectively) or [^3H]P1075 (final concentration 3 nM, nonspecific binding defined by 100 μM pinacidil) and increasing concentrations of the test compounds. The free Mg^2+ concentration were kept close to 0.7 mM. […] Incubations were carried out for 1 h at room temperature and were terminated by rapid filtration through Whatman GF/B filters.
(§4) The inhibition constant (Ki value) of the test substances was calculated from the respective IC50 value, and was stated as the negative logarithmic value thereof (pKi).

[3] = molecular target: rat SUR2A (Rattus norvegicus, UniProt Q63563); assay: In vitro binding affinity to rodent KATP channels: SUR2A ([3H]P1075 / [3H]glibenclamide displacement, COS cell membranes)
Description: Therefore, two strategies can be used to detect binding to the sulfonylurea site on SUR2A.
Membranes from COS-cells transiently expressing rat SUR2A were incubated in the presence of the radioligands with increasing concentrations of test compounds as described above. […] For each test compound four displacement curves were measured (displacement of [^3H]P1075 from the rat isoform of the wild type receptor and displacement of [^3H]glibenclamide from the rat isoform of SUR2AY1205S). Per curve 9-15 distinct concentrations were tested covering the relevant range. All measurements were repeated at least 5 times in independent experiments.
as §1, §2, §3, §4

[4] = cloned human CB2 receptor expressed in CHO cells, read-out: Affinity to CB2 (converted)
[5] = rat SUR2A in COS cell membranes

Sequence of rat SUR2A (Q63563 whole entry): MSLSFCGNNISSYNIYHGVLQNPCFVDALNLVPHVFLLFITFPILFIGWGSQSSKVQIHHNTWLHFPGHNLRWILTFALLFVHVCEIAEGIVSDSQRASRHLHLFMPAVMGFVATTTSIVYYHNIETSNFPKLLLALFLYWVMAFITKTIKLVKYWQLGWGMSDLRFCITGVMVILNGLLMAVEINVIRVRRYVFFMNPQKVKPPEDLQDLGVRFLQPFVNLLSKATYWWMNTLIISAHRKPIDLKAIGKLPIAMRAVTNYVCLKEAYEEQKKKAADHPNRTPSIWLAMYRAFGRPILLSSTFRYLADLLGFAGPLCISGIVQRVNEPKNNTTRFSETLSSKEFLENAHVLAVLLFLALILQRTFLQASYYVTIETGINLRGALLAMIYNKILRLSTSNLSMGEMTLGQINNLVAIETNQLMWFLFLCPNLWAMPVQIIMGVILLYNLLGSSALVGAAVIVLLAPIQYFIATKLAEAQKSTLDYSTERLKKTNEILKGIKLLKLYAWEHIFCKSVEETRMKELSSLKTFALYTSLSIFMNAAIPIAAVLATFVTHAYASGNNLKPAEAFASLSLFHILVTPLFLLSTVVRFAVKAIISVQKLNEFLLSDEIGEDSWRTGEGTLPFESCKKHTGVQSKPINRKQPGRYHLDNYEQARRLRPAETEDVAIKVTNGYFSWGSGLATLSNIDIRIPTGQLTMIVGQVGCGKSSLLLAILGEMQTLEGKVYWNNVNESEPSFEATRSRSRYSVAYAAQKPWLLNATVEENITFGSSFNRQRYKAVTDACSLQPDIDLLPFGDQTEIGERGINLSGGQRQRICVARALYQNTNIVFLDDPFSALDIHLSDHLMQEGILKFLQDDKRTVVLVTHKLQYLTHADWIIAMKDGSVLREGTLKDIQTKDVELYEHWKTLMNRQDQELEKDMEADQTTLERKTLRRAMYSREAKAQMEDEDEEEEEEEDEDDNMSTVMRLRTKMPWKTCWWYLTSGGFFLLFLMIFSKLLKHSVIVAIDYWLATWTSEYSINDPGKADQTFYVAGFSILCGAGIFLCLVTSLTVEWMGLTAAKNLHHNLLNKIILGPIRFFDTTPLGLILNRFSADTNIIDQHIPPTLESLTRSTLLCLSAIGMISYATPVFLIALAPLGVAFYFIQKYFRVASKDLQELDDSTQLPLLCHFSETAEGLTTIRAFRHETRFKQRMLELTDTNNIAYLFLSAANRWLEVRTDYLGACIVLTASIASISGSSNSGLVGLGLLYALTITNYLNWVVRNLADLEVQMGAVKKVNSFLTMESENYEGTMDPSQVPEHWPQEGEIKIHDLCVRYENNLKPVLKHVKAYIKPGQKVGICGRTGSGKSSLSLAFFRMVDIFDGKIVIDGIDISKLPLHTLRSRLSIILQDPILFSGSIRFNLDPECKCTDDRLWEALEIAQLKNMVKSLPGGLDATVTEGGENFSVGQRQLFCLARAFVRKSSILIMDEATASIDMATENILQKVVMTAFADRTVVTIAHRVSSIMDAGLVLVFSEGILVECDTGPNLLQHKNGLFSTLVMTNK
T1 sequence (Q09427 whole entry): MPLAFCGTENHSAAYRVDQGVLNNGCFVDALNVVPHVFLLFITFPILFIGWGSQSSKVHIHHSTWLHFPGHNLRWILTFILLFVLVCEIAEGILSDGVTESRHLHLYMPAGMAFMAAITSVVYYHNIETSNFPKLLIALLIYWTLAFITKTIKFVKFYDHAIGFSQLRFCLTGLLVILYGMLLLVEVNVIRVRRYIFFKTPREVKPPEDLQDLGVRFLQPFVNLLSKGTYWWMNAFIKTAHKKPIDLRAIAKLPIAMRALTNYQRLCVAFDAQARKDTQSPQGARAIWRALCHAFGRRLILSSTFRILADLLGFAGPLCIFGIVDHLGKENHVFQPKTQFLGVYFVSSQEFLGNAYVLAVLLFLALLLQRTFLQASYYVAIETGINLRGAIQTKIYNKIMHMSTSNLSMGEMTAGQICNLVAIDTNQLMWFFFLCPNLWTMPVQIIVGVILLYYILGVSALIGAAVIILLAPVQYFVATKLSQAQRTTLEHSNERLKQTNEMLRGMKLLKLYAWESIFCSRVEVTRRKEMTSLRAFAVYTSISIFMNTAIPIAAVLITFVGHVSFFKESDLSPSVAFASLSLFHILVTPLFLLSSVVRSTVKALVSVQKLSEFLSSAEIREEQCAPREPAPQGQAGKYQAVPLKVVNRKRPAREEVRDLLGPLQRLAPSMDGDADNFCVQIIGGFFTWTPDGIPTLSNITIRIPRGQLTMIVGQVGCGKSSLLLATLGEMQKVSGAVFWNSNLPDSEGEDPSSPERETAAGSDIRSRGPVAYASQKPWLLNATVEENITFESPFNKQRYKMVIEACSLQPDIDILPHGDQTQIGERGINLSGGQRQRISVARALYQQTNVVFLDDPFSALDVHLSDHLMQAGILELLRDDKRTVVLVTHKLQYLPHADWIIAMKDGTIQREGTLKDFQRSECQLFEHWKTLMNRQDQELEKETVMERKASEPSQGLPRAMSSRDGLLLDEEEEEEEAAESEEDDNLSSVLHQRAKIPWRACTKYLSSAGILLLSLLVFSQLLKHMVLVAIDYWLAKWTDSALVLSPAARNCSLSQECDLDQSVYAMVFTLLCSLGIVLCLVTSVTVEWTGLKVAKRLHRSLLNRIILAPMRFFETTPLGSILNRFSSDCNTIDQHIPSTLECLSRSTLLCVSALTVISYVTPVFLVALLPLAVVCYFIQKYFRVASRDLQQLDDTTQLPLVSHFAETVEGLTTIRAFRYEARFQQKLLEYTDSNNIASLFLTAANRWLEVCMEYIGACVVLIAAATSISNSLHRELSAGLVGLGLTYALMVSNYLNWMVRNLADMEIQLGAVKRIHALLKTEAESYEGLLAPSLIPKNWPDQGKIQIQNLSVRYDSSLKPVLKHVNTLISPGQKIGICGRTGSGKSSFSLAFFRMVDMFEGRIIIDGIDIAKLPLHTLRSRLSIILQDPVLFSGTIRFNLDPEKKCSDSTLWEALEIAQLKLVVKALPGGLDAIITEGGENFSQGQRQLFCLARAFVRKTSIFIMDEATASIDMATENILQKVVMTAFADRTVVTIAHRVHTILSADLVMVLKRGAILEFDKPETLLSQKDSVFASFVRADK
Sequence of human cannabinoid CB2 receptor (P34972 whole entry): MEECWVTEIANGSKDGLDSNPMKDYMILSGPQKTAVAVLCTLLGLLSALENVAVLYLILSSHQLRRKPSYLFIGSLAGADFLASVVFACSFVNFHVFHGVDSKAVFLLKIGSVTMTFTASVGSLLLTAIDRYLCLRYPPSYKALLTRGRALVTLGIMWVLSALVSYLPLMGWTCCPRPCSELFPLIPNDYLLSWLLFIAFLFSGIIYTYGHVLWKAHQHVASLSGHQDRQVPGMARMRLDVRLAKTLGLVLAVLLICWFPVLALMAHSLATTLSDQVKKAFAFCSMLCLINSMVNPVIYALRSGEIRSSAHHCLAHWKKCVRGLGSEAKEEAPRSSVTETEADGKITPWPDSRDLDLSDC

| SMILES | Ki [1, 4] | Ki [2] | Ki [1] | pKi [3] | pKi [3, 5] |
| --- | --- | --- | --- | --- | --- |
| CCc1c(C(=O)NN2CCCCC2)nn(-c2ccc(Cl)cc2Cl)c1-c1ccc(Br)cc1 [SR-147778, 5-(4-Bromo-phenyl)-1-(2,4-dichloro-phenyl)-4-ethyl-1H-pyrazole-3-carboxylic acid piperidin-1-ylamide, reference compound] | 1260 nM | 3.16 µM | – | – | – |
| CCCCC/C=C\C/C=C\C/C=C\C/C=C\CCCCOC(CO)CO [Noladineether, reference compound] | – | 3.98 µM | 251 nM | – | – |
| CNC(=NS(=O)(=O)c1ccc(Cl)cc1)N1CC(c2cccnc2)C(c2ccc(Cl)cc2)=N1 (stereo not drawn) | – | 2.51 µM | – | 5.4 | – |
| CCSc1c(C(=O)NN2CCCCC2)nc(-c2ccc(Cl)cc2Cl)n1-c1ccc(Cl)cc1 [1-(4-Chloro-phenyl)-2-(2,4-dichloro-phenyl)-5-ethylsulfanyl-1H-imidazole-4-carboxylic acid piperidin-1-ylamide] | – | 7.94 µM | – | 5.3 | – |
| O=S(=O)(N=C(NCC1CCNCC1)N1CC(c2ccccc2)C(c2ccc(Cl)cc2)=N1)c1ccc(Cl)cc1 (stereo not drawn) | – | 0.631 µM | – | 4.9 | – |
| CN/C(=N\S(=O)(=O)N1CCCCCC1)N1CC(c2ccccc2)C(c2ccc(Cl)cc2)=N1 (stereo not drawn) [Azepane-1-sulfonic acid [3-(4-chloro-phenyl)-4-phenyl-4,5-dihydro-pyrazol-1-yl]-methylamino-methyleneamide] | – | 25.1 µM | – | 4.9 | – |
| O=C(NN1CCCCC1)c1nc(-c2ccc(Cl)cc2Cl)c(-c2ccc(Cl)cc2)s1 [5-(4-Chloro-phenyl)-4-(2,4-dichloro-phenyl)-thiazole-2-carboxylic acid piperidin-1-ylamide] | – | 2 µM | – | 5.5 | – |
| CCNCCN/C(=N\S(=O)(=O)c1ccc(Cl)cc1)N1CC(c2ccccc2)C(c2ccc(Cl)cc2)=N1 (stereo not drawn) [4-Chloro-N-[[3-(4-chloro-phenyl)-4-phenyl-4,5-dihydro-pyrazol-1-yl]-(2-ethylamino-ethylamino)-methylene]-Benzenesulfonamide] | – | 7.94 µM | – | 5.3 | – |
| CCC1CN=C(N2CC(c3ccccc3)C(c3ccc(Cl)cc3)=N2)O1 (stereo not drawn) [2-[3-(4-Chloro-phenyl)-4-phenyl-4,5-dihydro-pyrazol-1-yl]-5-ethyl-4,5-dihydro-oxazole] | – | 3.16 µM | – | 4.4 | – |
| CCc1c(C(=O)NN2CCCCC2)nc(-c2ccc(Cl)cc2Cl)n1-c1ccc(Br)cc1 [1-(4-Bromo-phenyl)-2-(2,4-dichloro-phenyl)-5-ethyl-1H-imidazol-4-carboxylic acid piperidin-1-ylamide] | – | 3.98 µM | – | 5.3 | – |
| CCN(CC)S(=O)(=O)N=C(NC)N1CC(O)(c2ccccc2)C(c2ccc(Cl)cc2)=N1 (stereo not drawn) [N,N-Diethylamino-1-sulfonic acid [3-(4-chloro-phenyl)-4-hydroxy-4-phenyl-4,5-dihydro-pyrazol-1-yl]-methylamino-methyleneamide] | – | 100 µM | – | 5.9 | – |
| O=C(NN1CCCC1)c1nc(-c2ccc(Cl)cc2)n(-c2ccc(Cl)cc2Cl)n1 [5-(4-Chloro-phenyl)-1-(2,4-dichloro-phenyl)-1H-[1,2,4]triazole-3-carboxylic acid pyrrolidin-1-ylamide] | – | 100 µM | – | 4.4 | – |
| C[S+]([O-])c1c(C(=O)NN2CCCCC2)nc(-c2ccc(Cl)cc2Cl)n1-c1ccc(Cl)cc1 (stereo not drawn) [1-(4-Chloro-phenyl)-2-(2,4-dichloro-phenyl)-5-methanesulfinyl-1H-imidazole-4-carboxylic acid piperidin-1-ylamide] | – | 100 µM | – | – | 4.9 |
| CON(C)C(=NS(=O)(=O)c1ccc(Cl)cc1)N1CC(c2ccccc2)C(c2ccc(Cl)cc2)=N1 (stereo not drawn) [4-Chloro-N-[[3-(4-chloro-phenyl)-4-phenyl-4,5-dihydro-pyrazol-1-yl]-(methoxy-methyl-amino)-methylene]-benzenesulfonamide] | – | 1.26 µM | – | 5.9 | – |
| CNC(=NS(=O)(=O)N1CCOCC1)C1=NN(c2ccc(Cl)cc2Cl)C(c2ccccc2)C1 (stereo not drawn) [Morpholine-4-sulfonic acid [1-(2,4-dichloro-phenyl)-5-phenyl-4,5-dihydro-1H-pyrazol-3-yl]-methylamino-methyleneamide] | – | 5.01 µM | – | 5.0 | – |
| O=C(NN1CCCCC1)c1nc(-c2ccc(Cl)cc2Cl)n(-c2ccc(Cl)cc2)c1CC(F)(F)F [1-(4-Chloro-phenyl)-2-(2,4-dichloro-phenyl)-5-(2,2,2-trifluoro-ethyl)-1H-imidazole-4-carboxylic acid piperidin-1-ylamide] | – | 15.8 µM | – | 5.7 | – |
| O=S(=O)(N=C(NC1CCNCC1)N1CC(c2ccccc2)C(c2ccc(Cl)cc2)=N1)c1ccc(Cl)cc1 (stereo not drawn) [4-Chloro-N-[[3-(4-chloro-phenyl)-4-phenyl-4,5-dihydro-pyrazol-1-yl]-(piperidin-4-ylamino)-methylene]-benzenesulfonamide] | – | 31.6 µM | – | 4.6 | – |
| CCc1c(C(=O)NN2CCCCC2)nc(-c2ccccc2Cl)n1-c1ccc(Cl)cn1 [2-(2-Chloro-phenyl)-1-(5-chloro-pyridin-2-yl)-5-ethyl-1H-imidazole-4-carboxylic acid piperidin-1-ylamide] | – | 100 µM | – | 4.8 | – |
| N#CCCNC(=NS(=O)(=O)c1ccc(Cl)cc1)N1CC(c2ccccc2)C(c2ccc(Cl)cc2)=N1 (stereo not drawn) [4-Chloro-N-[[3-(4-chloro-phenyl)-4-phenyl-4,5-dihydro-pyrazol-1-yl]-(2-cyano-ethylamino)-methylene]-benzene sulfonamide] | – | 0.2 µM | – | 5.9 | – |
| CCCCC/C=C\C/C=C\C/C=C\C/C=C\CCCC(=O)OC(CO)CO [2-AG, Icosa-5,8,11,14-tetraenoic acid 2-hydroxy-1-hydroxymethyl-ethyl ester, reference compound] | 3980 nM | 2.51 µM | – | – | – |
| O=C(NN1CCCCC1)c1cn(-c2ccc(C(F)(F)F)cc2)c(-c2ccccc2Cl)n1 [2-(2-Chloro-phenyl)-1-(4-trifluoromethyl-phenyl)-1H-imidazole-4-carboxylic acid piperidin-1-ylamide] | – | 1 µM | – | 5.7 | – |
| CCCCCc1nc(C(=O)NC23CC4CC(CC(C4)C2)C3)sc1-c1ccccc1 [N-Adamantyl-4-pentyl-5-phenyl-thiazole-2-carboxamide] | – | 100 µM | – | – | 4.0 |
| CCN(CC)S(=O)(=O)N=C(SC)N1CC(c2ccccc2)C(c2ccc(Cl)cc2)=N1 (stereo not drawn) [N,N-Diethylamino-1-sulfonic acid [3-(4-chloro-phenyl)-4-phenyl-4,5-dihydro-pyrazol-1-yl]-methylsulfanyl-methyleneamide] | – | 100 µM | – | 4.7 | – |
| O=C(NN1CCCCC1)c1nc(-c2ccc(Cl)cc2Cl)n(-c2ccc(Cl)cc2)c1CN1CCCC1 [1-(4-Chloro-phenyl)-2-(2,4-dichloro-phenyl)-5-pyrrolidin-1-ylmethyl-1H-imidazole-4-carboxylic acid piperidin-1-ylamide] | – | 100 µM | – | – | 4.6 |
| Cc1c(NC(=O)N2CCCCC2)nn(-c2ccc(Cl)cc2Cl)c1-c1ccc(Cl)cc1 [Piperidine-1-carboxylic acid [5-(4-chloro-phenyl)-1-(2,4-dichloro-phenyl)-4-methyl-1H-pyrazol-3-yl]-amide] | – | 20 µM | – | 4.7 | – |
| Cn1c(C(=O)NC2CCCCC2)nc(-c2ccc(Cl)cc2)c1-c1ccc(Cl)cc1Cl [4-(4-Chloro-phenyl)-5-(2,4-dichloro-phenyl)-1-methyl-1H-imidazole-2-carboxylic acid cyclohexylamide] | – | 100 µM | – | – | 4.7 |
| O=C(NN1CCCCC1)c1nc(-c2ccc(Cl)cc2Cl)n(-c2ccc(Cl)cc2)n1 [1-(4-Chloro-phenyl)-5-(2,4-dichloro-phenyl)-1H-[1,2,4]triazole-3-carboxylic acid piperidin-1-yl-amide] | – | 10 µM | – | 5.0 | – |
